Test results taken from paper PMC9571628 (Molecules, 2022).

What was measured:
[1] = system: UGT1A9; conditions: cited from earlier work
[2] = system: UGT1A1; conditions: cited from earlier work
[3] = cited from earlier work
[4] = system: CYP450; conditions: cited from earlier work
[5] = system: Ugt1a7 mRNA; assay: qRT-PCR of Ugt1a7 mRNA in liver and intestines of rats after multiple doses; format: in vivo; conditions: DAPA administered to rats for seven consecutive days (1 mg/kg)
Experimental: The qRT-PCR analysis was used to measure mRNA levels of Ugt1a7 in the liver and intestines of rats. Total RNA was isolated from frozen liver and intestine samples using the TRNzol Universal as per the manufacturer’s instructions. A Bio Tek Epoch (Bio Tek Instruments, Inc., Winooski, VT, USA) was used to quantify the concentration and purity of the total RNA based on the ratio of the absorbance between 260 and 280 nm. RNA samples of 1 μg of were converted to complementary (cDNA) using the FastKing RT Kit. The real-time PCR assays were performed using a two-step amplification method according to the manufacturer’s recommendations in a SLAN-96S Real-Time PCR system (Shanghai Hongshi Medical Technology Co., Ltd. Shanghai, China). The PCR cycling conditions were as follows: 95 °C for 15 min, followed by 40 cycles of 95 °C for 10 s and 60 °C for 32 s. The sequences of primers are listed in Table 6. β-actin was used as an internal control.

[6] = Pharmacokinetic interaction study between SOR and DAPA in rats (oral gavage, plasma by UPLC-MS/MS); conditions: for AUC(0-t) / AUC(0-inf) / CL/F / Cmax / MRT last / MRT inf / Tmax / Vd/F / half-life: male, Sprague-Dawley, rat, in vivo, po, 1 mg/kg, n = 6; for AUC(0-t): AUC0-t; for AUC(0-inf): AUC0–∞; for CL/F: CLz/F; for MRT last: MRT0-t; for MRT inf: MRT0–∞; for Vd/F: Vz/F; for half-life: t1/2z;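 as to all read-outs here: parameters derived by non-compartmental analysis of plasma concentration–time data, with analyte levels measured by UPLC-MS/MS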
Experimental: Analytes were quantified using Ultra-Performance Liquid Chromatography-Tandem Mass Spectrometry (UPLC-MS/MS) which consisted of an LC-30A ultra-performance liquid chromatography (Shimadzu, Kyoto, Japan) and Sciex Triple Quad 5500 tandem triple quadrupole mass spectrometer (AB Sciex, Framingham, MA, USA). Chromatographic separation was performed using an XSelect HSS T3 column (2.1 mm × 100 mm, 2.5 μm, Waters, Milford, MA, USA) at 40 °C by gradient elution. The mobile phase consisted of water with 0.1% formic acid and 5 mM ammonium acetate (phase A) and acetonitrile (phase B), and the gradient elution procedure was as follows: 0–0.5 min, 60–90% B; 0.5–3 min, 90% B; 3–3.1 min, 90–60% B; and 3.1–4 min, 60% B. The injection volume was 5 μL.
A volume of 25 µL plasma samples, 2.5 µL IS mixed working solution, and 150 μL methyl tertbutyl ether was added, then vortex-mixed for 1 min. The mixture was centrifuged at 12,000× g for 10 min. The organic phase was transferred to a new centrifuged tube and evaporated to dryness under a stream of nitrogen at room temperature. The dried samples were redissolved with 100 μL of 50% acetonitrile and briefly vortexed for 1 min, then 5 μL was injected into the UPLC-MS/MS for analysis.
Adult male Sprague-Dawley (SD) rats weighing 230 ± 30 g were provided by Beijing Weitong Lihua Experimental Animal Technology Co., Ltd. (Beijing, China). The license number is SCXK (Beijing) 2016–0011. All experimental procedures for this study were reviewed and approved by the Animal Ethics Committee of Hebei General Hospital (Shijiazhuang, China) (No. 2022072). The rats were adapted to the standard laboratory conditions (12 h dark–light cycle, temperature at approximately 23 ± 2 °C, relative humidity of 50 ± 10%) for a week. All the rats were given access to water freely, while the diet was prohibited for 12 h before administration.
Twenty-four healthy rats were randomly divided into four groups (n = 6 in each group). […] Blood samples were then centrifuged at 3500× g for 10 min at 4 °C, and the supernatant was transferred to another centrifuged tube, then stored in a −80 °C freezer until analysis.
DAS 2.1.1 Software (Mathematical Pharmacology Professional Committee of China, Shanghai, China) was used to calculate pharmacokinetic parameters with non-compartmental analysis. The pharmacokinetic analysis included AUC (area under the concentration–time curve), Cmax (maximum plasma concentration), Tmax (time to maximum plasma concentration), t1/2 (time required to eliminate half of plasma drug concentration), CLz/F (clearance of drug plasma volume per time unit), Vz/F (apparent volume of distribution), and MRT (mean residence time). SPSS 25.0 statistical software (SPSS Inc., Chicago, IL, USA) was used to statistically analyze the above-mentioned pharmacokinetic parameters. Statistical comparisons of the experimental and control groups were conducted using a nonparametric rank-sum test or t-test, depending on the data type; p < 0.05 was considered statistically significant.

[7] = Stability of QC samples in rat plasma under different storage and processing conditions; format: physicochemical; conditions: for Accuracy (RE%) / Mean ± SD concentration found: rat plasma, n = 6
Experimental: The stability of QC samples in rat plasma was tested in six replicates at three concentration levels exposed to different storage and processing conditions: autosampler for 6 h after processing, room temperature for 4 h, −80 °C for 30 days, three freeze–thaw cycles (−80 °C to room temperature).

[8] = co-administered with multiple doses of SOR vs control group (DAPA alone)
[9] = DAPA 1 mg/kg oral with multiple-doses SOR (100 mg/kg, seven days)
[10] = Autosampler for 6 h, nominal 15 ng/mL
[11] = Autosampler for 6 h, nominal 800 ng/mL
[12] = Autosampler for 6 h, nominal 1500 ng/mL
[13] = Freeze–thaw stability for three times, nominal 15 ng/mL
[14] = Freeze–thaw stability for three times, nominal 800 ng/mL
[15] = Freeze–thaw stability for three times, nominal 1500 ng/mL
[16] = Room temperature for 4 h, nominal 15 ng/mL
[17] = Room temperature for 4 h, nominal 800 ng/mL
[18] = Room temperature for 4 h, nominal 1500 ng/mL
[19] = −80 °C for 30 days, nominal 15 ng/mL
[20] = −80 °C for 30 days, nominal 800 ng/mL
[21] = −80 °C for 30 days, nominal 1500 ng/mL

In the case of `CCOc1ccc(Cc2cc([C@@H]3O[C@H](CO)[C@@H](O)[C@H](O)[C@H]3O)ccc2Cl)cc1` [DAPA, Dapagliflozin], the UGT1A9 inhibitor strength [1] is listed as “moderate”, the UGT1A1 inhibitor strength [2] is listed as “moderate” and the “increase of exposure of DAPA” value ([3]; with mefenamic acid (a strong UGT1A9 inhibitor)) is listed as 51%. For the same molecule, the “reduction of exposure of DAPA” value ([3]; with rifampin (a pleiotropic enzyme inducer)) was 22%, the “share metabolized by CYP450” value [4] was < 10% and the “effect on the expression of Ugt1a7 in the intestines” value ([5]; intestines) was “no significant effect”. For the same molecule, the “inhibition of mRNA expression of Ugt1a7 in the liver” value ([5]; liver) was 59.31%, the “decrease of CLz/F of DAPA” value [6, 8] was 40% and the “elevation of MRT0–t of DAPA” value [6, 8] was 1.48 fold. For the same molecule, the “elevation of MRT0–∞ of DAPA” value [6, 8] was 1.80 fold, the “elevation of Tmax of DAPA” value [6, 8] was 1.43 fold and the “increase of AUC0–t of DAPA” value [6, 8] was 1.66 fold. The “increase of AUC0–∞ of DAPA” value [6, 8] was 1.80 fold, the AUC(0-t) [6, 9] was 8570 ± 2860 ng·h/mL and the AUC(0-t) ([6]; DAPA 1 mg/kg oral, alone) was 5160 ± 1030 ng·h/mL. The AUC(0-inf) [6, 9] was 9300 ± 4260 ng·h/mL, the AUC(0-inf) ([6]; DAPA 1 mg/kg oral, alone) was 5180 ± 1050 ng·h/mL and the CL/F [6, 9] was 2 mL/min/kg. It also gave a CL/F ([6]; DAPA 1 mg/kg oral, alone) of 3.33 mL/min/kg, a Cmax [6, 9] of 871 ± 167 ng/mL and a Cmax ([6]; DAPA 1 mg/kg oral, alone) of 846 ± 76.4 ng/mL. It also gave an MRT last [6, 9] of 9.01 ± 1.22 h, an MRT last ([6]; DAPA 1 mg/kg oral, alone) of 6.1 ± 0.96 h and an MRT inf [6, 9] of 11.2 ± 4.86 h. For the same molecule, the MRT inf ([6]; DAPA 1 mg/kg oral, alone) was 6.25 ± 1.07 h, the Tmax [6, 9] was 0.83 ± 0.41 h and the Tmax ([6]; DAPA 1 mg/kg oral, alone) was 0.58 ± 0.2 h. For the same molecule, the Vd/F [6, 9] was 1.12 ± 0.1 L/kg, the Vd/F ([6]; DAPA 1 mg/kg oral, alone) was 1.27 ± 0.19 L/kg and the half-life [6, 9] was 7.95 ± 4.03 h. The half-life ([6]; DAPA 1 mg/kg oral, alone) was 4.51 ± 0.67 h, the “Accuracy (RE%)” value [7, 10] was −0.4% and the “Mean ± SD concentration found” value [7, 10] was 14.93 ± 0.83 ng/mL. For the same molecule, the “Accuracy (RE%)” value [7, 11] was 3.8%, the “Mean ± SD concentration found” value [7, 11] was 830.00 ± 15.05 ng/mL and the “Accuracy (RE%)” value [7, 12] was 9.6%. For the same molecule, the “Mean ± SD concentration found” value [7, 12] was 1643.33 ± 32.66 ng/mL, the “Accuracy (RE%)” value [7, 13] was 1.2% and the “Mean ± SD concentration found” value [7, 13] was 15.18 ± 0.87 ng/mL. For the same molecule, the “Accuracy (RE%)” value [7, 14] was −3.8%, the “Mean ± SD concentration found” value [7, 14] was 769.83 ± 44.56 ng/mL and the “Accuracy (RE%)” value [7, 15] was −7.4%. The “Mean ± SD concentration found” value [7, 15] was 1388.33 ± 54.19 ng/mL, the “Accuracy (RE%)” value [7, 16] was −0.7% and the “Mean ± SD concentration found” value [7, 16] was 14.90 ± 0.49 ng/mL. For the same molecule, the “Accuracy (RE%)” value [7, 17] was 11.1%, the “Mean ± SD concentration found” value [7, 17] was 889.00 ± 15.43 ng/mL and the “Accuracy (RE%)” value [7, 18] was 10.2%. The “Mean ± SD concentration found” value [7, 18] was 1653.33 ± 21.60 ng/mL, the “stability in rat plasma” value ([7]; autosampler for 6 h, room temperature for 4 h, −80 °C for 30 days, three cycles of freezing and thawing (−80 °C to room temperature)) was “stable” and the “Accuracy (RE%)” value [7, 19] was 2.9%. The “Mean ± SD concentration found” value [7, 19] was 15.43 ± 1.07 ng/mL, the “Accuracy (RE%)” value [7, 20] was 2.8% and the “Mean ± SD concentration found” value [7, 20] was 822.17 ± 21.66 ng/mL. For the same molecule, the “Accuracy (RE%)” value [7, 21] was −1.1% and the “Mean ± SD concentration found” value [7, 21] was 1483.33 ± 19.66 ng/mL.
